These results are taken from US20170056380A1, “Systems, Methods, Techniques, and Compounds in Research and Treatment of Portal Hypertension and other Conditions” (priority 2014, published 2017).

For this test, the target named is T1, eNOS cytochrome c reductase activity (Rattus norvegicus, UniProt Q62600).
T1 construct: endogenous in cells; host or cells: primary liver sinusoidal endothelial cells from male Sprague-Dawley rats (normal or bile-duct-ligated)
T1 sequence (Q62600 1-1202): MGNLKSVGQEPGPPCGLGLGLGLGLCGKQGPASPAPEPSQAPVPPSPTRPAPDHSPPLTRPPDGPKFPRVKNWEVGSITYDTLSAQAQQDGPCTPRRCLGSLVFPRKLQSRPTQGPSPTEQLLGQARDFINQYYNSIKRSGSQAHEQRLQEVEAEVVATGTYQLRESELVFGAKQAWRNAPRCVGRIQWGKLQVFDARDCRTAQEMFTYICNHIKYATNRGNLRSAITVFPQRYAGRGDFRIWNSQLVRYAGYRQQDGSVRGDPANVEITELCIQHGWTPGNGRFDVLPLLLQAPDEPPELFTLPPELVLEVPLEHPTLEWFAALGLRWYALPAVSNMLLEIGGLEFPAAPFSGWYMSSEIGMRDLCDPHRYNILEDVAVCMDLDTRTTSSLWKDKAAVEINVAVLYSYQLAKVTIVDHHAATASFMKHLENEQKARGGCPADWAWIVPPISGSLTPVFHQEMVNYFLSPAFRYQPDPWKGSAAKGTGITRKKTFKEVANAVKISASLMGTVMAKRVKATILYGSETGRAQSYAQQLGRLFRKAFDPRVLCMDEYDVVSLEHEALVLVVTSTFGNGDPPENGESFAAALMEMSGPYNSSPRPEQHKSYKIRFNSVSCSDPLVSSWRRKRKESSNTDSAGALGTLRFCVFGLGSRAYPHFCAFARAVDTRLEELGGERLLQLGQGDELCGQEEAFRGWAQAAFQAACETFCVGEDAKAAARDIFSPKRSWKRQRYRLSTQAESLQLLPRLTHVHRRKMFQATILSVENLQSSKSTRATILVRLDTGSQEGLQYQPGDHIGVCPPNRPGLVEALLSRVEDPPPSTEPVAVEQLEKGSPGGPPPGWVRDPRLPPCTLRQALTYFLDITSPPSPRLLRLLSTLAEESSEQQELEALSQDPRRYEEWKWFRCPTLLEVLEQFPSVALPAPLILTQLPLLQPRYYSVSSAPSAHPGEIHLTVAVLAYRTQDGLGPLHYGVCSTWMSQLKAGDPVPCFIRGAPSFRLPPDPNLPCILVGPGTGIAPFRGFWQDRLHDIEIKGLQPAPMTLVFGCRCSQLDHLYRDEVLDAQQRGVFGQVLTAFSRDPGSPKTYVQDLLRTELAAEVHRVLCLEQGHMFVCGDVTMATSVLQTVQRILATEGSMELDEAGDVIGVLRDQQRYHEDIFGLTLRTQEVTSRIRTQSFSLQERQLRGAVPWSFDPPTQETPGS
The test is described as follows: NADPH-dependent cytochrome c reductase assay in sinusoidal endothelial cell lysates. The format is cell-based. The protocol: Cell isolation and culture. Sinusoidal endothelial cells were isolated from male Sprague-Dawley rats (450-500 g) (Harlan, Indianapolis, Ind.). In brief, after in situ perfusion of the liver with 20 mg/100 mg pronase (Roche Molecular Biochemicals, Indianapolis, Ind.), followed by collagenase (Worthington Biochemical, Lakewood, N.J.), dispersed cell suspensions were removed from a layered discontinuous density gradient of 8.2 and 15.6% Accudenz (Accurate Chemical and Scientific, Westbury, N.Y.), further purified by centrifugal elutriation (18 ml/min flow), and were grown in medium containing 20% serum (10% horse/calf). The purity of endothelial cells was documented by their uptake of fluorescently labeled di-l-acetoacetylated low-density lipoprotein as described (21). Only primary sinusoidal endothelial isolates of >95% purity were used for study. Experiments were performed with cells frorrr a minimum three different isolations (for all experiments).
NOS activity assay. NOS activity from sinusoidal endothelial cell lysates was assessed by measuring the conversion of L-[3H]arginine to L-[3H]citrulline as described (6) per the manufacturer's instructions (Cayman Chemical). […] Radiolabeled counts per minute of generated L-citrulline were measured and used to determine L-NAME-inhibitable NOS activity (thus, each experiment included total counts and background counts). […] The reductase activities of sinusoidal endothelial cells with or without cicletanine exposure were determined using the NADPH-dependent cytochrome c assay. […] The reduction of cytochrome c was monitored at 550 nm at 25° C. […] Turnover number was calculated using the absorbance change during this 30-s interval and an extinction coefficient of 0.021/μM.

As for `Cc1ncc2c(c1O)COC2c1ccc(Cl)cc1` (stereo not drawn) [cicletanine, 3-(4-chlorophenyl)-1,3-dihydro-7-hydroxy-6-methylfuro-(3,4-c) pyridine], the “rate of cytochrome c reduction compared with no cicletanine treatment” value by setting is: (CaM stimulation) “twofold more”; (basal level) “twofold more”. Moreover, the “cytochrome c reductase activity” value (cicletanine 100 nM, 2 h) is reported as “significant increase”.
